# Like-named read-outs stand apart in the source and are kept apart here.
# Tests used:
# 22RV1 cells = experiment: MTT cell growth inhibition assay, 22RV1; format: cell-based; settings: for IC50: Homo sapiens, read-out: IC50 (22RV1 cell growth)
# Procedure: In brief, 22RV1 cells were seeded at a density of 1×10^4 cells/well into 96-well plates and treated with each drug at 6 concentrations ranging from 5 nM to 200 nM for 72 hours. Afterwards, an MTT dye solution and a solubilization solution/stop mix were added according to an MTT assay method, followed by reading absorbance at 570 nm to analyze cell viability and IC50.
# [1] = test system: hormone-dependent AR transcriptional activity; experiment: MMTV-LUC reporter assay in LNCaP cells, hormone-dependent AR transcriptional activity; format: cell-based; settings: Homo sapiens, read-out: IC50 (nM) DHT+
# [2] = mouse, in vivo; for AST/ALT (ave): sc
# Procedure: FIG. 8b is a graph showing changes in blood AST/ALT ratio with doses of bruceantin subcutaneously injected to mice according to an embodiment of the present disclosure.
# (§1) While being subcutaneously injected with bruceantin at a dose of 1 mg/kg/every 3 days, 22RV1-xenografted mouse models were monitored for inhibitory effects on tumor growth and body weights.
# [3] = test system: 22RV1-xenografted mouse models; format: in vivo; parameters: Tumor (ave): unit not given here; settings: for Tumor (ave): 1 mg/kg every 3 days subcutaneous
# Procedure: as §1
# [4] = test system: AR-V7 transcriptional activity; experiment: MMTV-LUC luciferase reporter assay in 22RV1 cells, DHT− (screening and IC50); format: cell-based; settings: for activity at 0.1 µM / activity at 1 µM / activity at 10 µM / IC50: Homo sapiens; for activity at 0.1 µM / activity at 1 µM / activity at 10 µM / IC50 / MMTV-LUC activity (%) DHT−: 22RV1 cells; for activity at 0.1 µM / activity at 1 µM / activity at 10 µM / MMTV-LUC activity (%) DHT−: no DHT, control = 100; for IC50: AR-V7 transcriptional activity; for potency as inhibitor of AR/AR-V7 transcriptional activity compared with ailanthone: in both CRPC 22RV1 cells and androgen-dependent LNCaP cells
# Procedure: (§2) A library of antimalarial agents was screened using a luciferase reporter assay to measure changes in AR/AR-V7 transcriptional activity.
# (§3) Screening was made primarily with 10 μM of each drug.
# [5] = test system: 22RV1 metastasis mouse models; format: in vivo; settings: 2 mg/kg every 2 days oral
# Procedure: In order construct metastasis mouse models with the castration-resistant prostate cancer cell line 22RV1, the cells were subcutaneously injected into nude mice and the tumors was grown. Then, the tumors were harvested and injected into the left cardiac ventricle of nude mice to construct metastasis mouse models (see FIG. 13).
# In the metastasis mouse models using the castration-resistant prostate cancer cell line 22RV1, bruceantin was analyzed for inhibitory effect on tumor metastasis and growth. In brief, the metastasis mice were monitored for inhibitory effects on tumor metastasis and growth and body weight while bruceantin was orally administered at a dose of 2 mg/kg/every 2 days thereto. The results are depicted in FIGS. 14a and 14b and Table 14.
# [6] = test system: 22RV1 xenograft mouse models; format: in vivo; parameters: Tumor (ave): unit not given here; settings: 2 mg/kg every 2 days oral
# Procedure: In mouse models xenografted with the castration-resistant prostate cancer (CRPC) cell line 22RV1, bruceantin was analyzed for inhibitory effect on tumor growth. To this end, bruceantin was orally administered at a dose of 2 mg/kg/every 2 days to 22RV1 xenograft mouse models during which inhibition effects on tumor growth and body weights were monitored. The results are depicted in FIGS. 9a and 9b and Tables 11 and 12.
# [7] = test system: AR transcriptional activity; experiment: MMTV-LUC luciferase reporter assay in 22RV1 cells, DHT+ (screening and IC50); format: cell-based; settings: for activity at 0.1 µM / activity at 1 µM / activity at 10 µM / IC50: Homo sapiens; for activity at 0.1 µM / activity at 1 µM / activity at 10 µM / MMTV-LUC activity (%) DHT+: with DHT, control = 100; for IC50: AR transcriptional activity
# Procedure: as §2, §3
# [8] = Hematobiochemical toxicity assay in 22RV1 xenograft mice; format: in vivo, mouse; settings: for ALT (ave) / AST (ave) / AST/ALT (ave) / CK (ave) / Cr (ave) / LDH (ave): mouse, in vivo
# Procedure: Briefly, in order to analyze toxicity of bruceantin in vivo, bloods from 22RV1 xenograft […] 3 days […] and oral administration at a dose of 2 mg/kg/every 2 days (p.o.), and the results are depicted in FIG. 10 and summarized in Table 13. • ALT: Alanine transaminase • AST: Aspartate transaminase • LDH: Lactate dehydrogenase • CR: Creatinine • CPK: Creatine phosphokinase
# [9] = test system: RWPE-1, DU145, PC3, LNCaP, C4-2B, C4-2B-MDVR and 22RV1 cells; experiment: MTT cell growth assay on normal prostate and prostate cancer cell lines; format: cell-based; settings: 1 nM to 5 nM, 72 hours; versus normal prostate cells and AR-negative prostate cancer cells
# Procedure: Bruceantin was analyzed for inhibitory activity against cell growth of normal prostate cells (RWPE-1), AR-negative prostate cancer cells (DU145, PC3), AR-positive hormone-dependent prostate cancer cells (LNCaP, C4-2B), AR- & AR-V7-positive castration-resistant prostate cancer cells (C4-2B-MDVR and 22RV1) by an MTT assay method.
# In brief, the cell lines were each seeded at a density of 1×10^4 cells/well into 96-well plates and incubated with each of the drugs at three concentrations ranging from 1 nM to 5 nM for 72 hours. Afterwards, an MTT dye solution and a solubilization solution/stop mix were added according to an MTT assay method, followed by reading absorbance at 570 nm to analyze cell viability. The data are depicted in FIG. 6.
# [10] = mouse, in vivo
# Procedure: Anatomical and histological toxicity assays were performed on livers, kidneys and spleens from the mice subcutaneously injected with bruceantin. In order to analyze in vivo toxicity of bruceantin, liver, kidney, and spleen tissues from 22RV1 xenograft mouse models were analyzed after subcutaneous injection at a dose of 1 mg/kg/every 3 days, and the results are depicted in FIGS. 11a and 11b.
# Anatomical and histological toxicity assays were performed on livers, kidneys and spleens from the mice to which bruceantin had been orally administered. In order to analyze in vivo toxicity of bruceantin, liver, kidney, and spleen tissues from 22RV1 xenograft mouse models were analyzed after oral administration at a dose of 2 mg/kg/every 2 days, and the results are depicted in FIGS. 12a and 12d.
molecule,measurement,setting,value
"COC(=O)[C@@]12OC[C@]34[C@H]([C@@H](O)[C@@H]1O)[C@@]1(C)CC(=O)C(O)=C(C)[C@@H]1C[C@H]3OC(=O)[C@H](OC(=O)/C=C(\C)C(C)C)[C@@H]24 [Bruceantin, bruceantin]",fold more potent inhibitory activity against CRPC cell growth than ailanthone,"22RV1 cells; 22RV1 cells, versus ailanthone",16 fold
same,IC50,"22RV1 cells; 22RV1 cells, MTT, 72 hours",2.07 nM
same,IC50,[1]; LNCaP,2.05 nM
same,effect on weights of the mice,[2]; 1 mg/kg,no effect on weights of the mice
same,hepatotoxicity,[2]; 1 mg/kg,nor to cause hepatotoxicity
same,AST/ALT (ave),[2]; 0.5 mg/kg,2.5
same,AST/ALT (ave),[2]; 1 mg/kg,3.3
same,Tumor (ave),[3]; Day 0,57.5
same,Tumor (ave),[3]; Day 3,81.7
same,Tumor (ave),[3]; Day 6,161.6
same,Tumor (ave),[3]; Day 9,250.2
same,Tumor (ave),[3]; Day 12,428.0
same,Tumor (ave),[3]; Day 15,676.3
same,Tumor (ave),[3]; Day 18,895.7
same,Tumor (ave),[3]; Day 21,938.5
same,Tumor (ave),[3]; Day 24,1005.7
same,inhibition of in vivo tumor growth of CRPC cells,"[3]; nude mice, 22RV1 cells, dose of 1 mg/kg",effectively inhibit in vivo tumor growth
same,activity at 0.1 µM,[4]; 0.1 uM,13.4 ± 2.5%
same,activity at 1 µM,[4]; 1 uM,15.2 ± 1.6%
same,activity at 10 µM,[4]; 10 uM,16.4 ± 2.3%
same,IC50,[4],3.14 nM
same,potency as inhibitor of AR/AR-V7 transcriptional activity compared with ailanthone,[4],more potent inhibitors against AR/AR-V7 transcriptional activity
same,inhibitory effect on tumor metastasis and growth,[5],inhibit metastatic tumor growth and the number of metastases
same,inhibition of tumor growth,[6],effectively inhibit tumor growth
same,Tumor (ave),[6]; Day 0,73.0453
same,Tumor (ave),[6]; Day 3,89.5358
same,Tumor (ave),[6]; Day 5,75.35
same,Tumor (ave),[6]; Day 7,88.811
same,Tumor (ave),[6]; Day 9,157.6571
same,Tumor (ave),[6]; Day 11,189.9515
same,Tumor (ave),[6]; Day 13,256.5573
same,Tumor (ave),[6]; Day 15,348.6721
same,Tumor (ave),[6]; Day 17,485.1394
same,Tumor (ave),[6]; Day 19,567.0807
same,Tumor (ave),[6]; Day 21,616.549
same,activity at 0.1 µM,[7]; 0.1 uM,4 ± 0.5%
same,activity at 1 µM,[7]; 1 uM,4.4 ± 0.3%
same,activity at 10 µM,[7]; 10 uM,3.9 ± 0.4%
same,IC50,[7],2.08 nM
same,toxicity on blood indices,"[8]; compared to the control vehicle, both routes",no toxicity on blood indices
same,ALT (ave),"[8]; ip, 1 mg/kg",61.2
same,AST (ave),"[8]; ip, 1 mg/kg",351
same,AST/ALT (ave),"[8]; ip, 1 mg/kg",6.409
same,CK (ave),"[8]; ip, 1 mg/kg",180
same,Cr (ave),"[8]; ip, 1 mg/kg",0.156
same,LDH (ave),"[8]; ip, 1 mg/kg",1098.6
same,ALT (ave),"[8]; po, 2 mg/kg",72
same,AST (ave),"[8]; po, 2 mg/kg",263.4
same,AST/ALT (ave),"[8]; po, 2 mg/kg",3.658
same,CK (ave),"[8]; po, 2 mg/kg",247.5
same,Cr (ave),"[8]; po, 2 mg/kg",0.138
same,LDH (ave),"[8]; po, 2 mg/kg",1456.8
same,specificity of cell growth inhibition,[9],inhibitory activity specifically against AR- and AR-V7-positive prostate cancer cells
same,"morphological and histological changes in liver, kidney, spleen","[10]; po, 2 mg/kg",no morphological and histological changes (toxicity)
same,"morphological and histological changes in liver, kidney, spleen","[10]; sc, 1 mg/kg",no morphological and histological changes (toxicity)
"COC(=O)[C@@]12OC[C@]34[C@H]([C@@H](O)[C@@H]1O)[C@@]1(C)CC(=O)C(O)=C(C)[C@@H]1C[C@H]3OC(=O)[C@H](OC(=O)CC(C)C)[C@@H]24 [Bruceine A, bruceine A]",IC50,"22RV1 cells; 22Rv1, 72 h",16.5 nM
same,IC50,[1]; LNCaP,15 nM
same,activity at 0.1 µM,[4]; 0.1 uM,19.5 ± 20.7%
same,activity at 1 µM,[4]; 1 uM,13.5 ± 1.7%
same,activity at 10 µM,[4]; 10 uM,11 ± 2.5%
same,IC50,[4],14.3 nM
same,potency as inhibitor of AR/AR-V7 transcriptional activity compared with ailanthone,[4],more potent inhibitors against AR/AR-V7 transcriptional activity
same,activity at 0.1 µM,[7]; 0.1 uM,5.7 ± 1%
same,activity at 1 µM,[7]; 1 uM,3.6 ± 0.2%
same,activity at 10 µM,[7]; 10 uM,2.8 ± 0.2%
same,IC50,[7],9.45 nM
"COC(=O)[C@@]12OC[C@]34[C@H]([C@@H](O)[C@@H]1O)[C@@]1(C)CC(=O)C(O)=C(C)[C@@H]1C[C@H]3OC(=O)[C@H](OC(=O)C=C(C)C)[C@@H]24 [Brusatol, brusatol]",IC50,"22RV1 cells; 22RV1 cells, MTT, 72 hours",15.1 nM
same,IC50,[1]; LNCaP cells,11.7 nM
same,activity at 0.1 µM,[4]; 0.1 uM,18.9 ± 20.2%
same,activity at 1 µM,[4]; 1 uM,14 ± 1.3%
same,activity at 10 µM,[4]; 10 uM,10.3 ± 2.7%
same,IC50,[4],14 nM
same,potency as inhibitor of AR/AR-V7 transcriptional activity compared with ailanthone,[4],more potent inhibitors against AR/AR-V7 transcriptional activity
same,activity at 0.1 µM,[7]; 0.1 uM,5.7 ± 0.6%
same,activity at 1 µM,[7]; 1 uM,4 ± 0.5%
same,activity at 10 µM,[7]; 10 uM,3.2 ± 0.2%
same,IC50,[7],6.23 nM
Yadanziolide C,MMTV-LUC activity (%) DHT−,[4]; 0.1 uM,80.5 ± 2.9%
same,MMTV-LUC activity (%) DHT−,[4]; 1 uM,17.4 ± 3.1%
same,MMTV-LUC activity (%) DHT−,[4]; 10 uM,6.0 ± 0.7%
same,MMTV-LUC activity (%) DHT+,[7]; 0.1 uM,92.5 ± 0.9%
same,MMTV-LUC activity (%) DHT+,[7]; 1 uM,12.1 ± 2.0%
same,MMTV-LUC activity (%) DHT+,[7]; 10 uM,1.1 ± 0.1%
